Consider 4 compounds from patent US4563479A, “Synergistic radiation protective pharmaceutical compositions” (Chinoin Gyogyszer es Vegyeszeti Termekek Gyar RT, priority 1979, dated 1986).

Counter-ions that a name gives are not always drawn. Like-named read-outs stand apart in the source and are kept apart here.

For data set [1] the following is noted: cited from earlier work.
For data set [2], the system named is mice. Kind of data set: Survival and survival coefficient "S" of irradiated mice (X-ray or 60Co gamma), Tables 2-4. Format: in vivo. Particulars: 140 mg/kg AET alone i.p. The method, then: Experiments are carried out in mice. Irradiation was carried out with X-ray (rtg) and with gamma rays obtained from ^60 Co isotope. Survival was observed on the 30th day after irradiation and expressed by using survival coefficient "S" according to Kaluszyner. […] Mice were treated intraperitoneally.

For data set [3] the following is noted: cited from earlier work. This is another data set of the same source.

Consider `N=C(N)SCCN` [AET, aminoethyl-isothiuronium-chloride-hydrochloride], for which, in data set [1] (listed as aminoethyl-isothiuronium-chloride-hydrochloride), the LD50 p.o. is 710 mg/kg. Moreover, the Survival % is given as 15% in data set [2] (X-ray (rtg) 630 R), 0% in data set [2] (X-ray (rtg) 800 R), 5% in data set [2] (gamma 900 rad) and 0% in data set [2] (gamma 1100 rad). The “Survival coefficient "S"” value in data set [2] (X-ray (rtg) 630 R) is on record as 0.39; in data set [2] (X-ray (rtg) 800 R), 0.27; in data set [2] (gamma 900 rad), 0.37; in data set [2] (gamma 1100 rad), 0.28.
For `N=C(N)SCCN` [aminoethyl-isothiuronium-bromide-hydrobromide], in data set [1], the LD50 p.o. is 1200 mg/kg.
Turning to `Cl.N[C@@H](CS)C(=O)O` [cysteine-hydrochloride], in data set [3] (in vivo), the Radiation protective dose was 1900 mg/kg.
For the compound `N=C(N)NCCS` [mercaptoethyl-guanidine], the LD50 p.o. in data set [1] was 350 mg/kg. Moreover, in data set [3] (LD50 p.o. / radiation protective dose), the Therapeutic index is reported as 1.75.
